dPhe(4-Cl) = N[C@H](Cc1ccc(Cl)cc1)C(=O)O; d2Nal = N[C@H](Cc1ccc2ccccc2c1)C(=O)O; dDeh = not defined here
What follows are substances tested on female mice (assay: acute subcutaneous toxicity in mice (21-day observation)). Details: administered subcutaneously to each of 6 female mice, 0.3 m.g. per animal (or 12 mg/kg body weight).
Type: in vivo
Procedure: Compounds 8,16,18,19 and 24 from Example 8 were administered subcutaneously to each of 6 female mice at a dose level of 0.3 m.g. per animal (or 12 mg/kg body weight). During an observation period of 21 days, no deaths were recorded in any of the treatment groups.
The acute subcutaneous LD50 in mice is thus greater than 12 mg/kg for these compounds.
For “N-Ac-D-Nal(2)-D-p-Cl-Phe-D-Trp-Ser-Tyr-D-Deh-Leu-Arg-Pro-D-AlaNH2 [Compound 19]”, the “deaths recorded during an observation period of 21 days” value was “no deaths”. With “N-Ac-D-Nal(2)-D-p-Cl-Phe-D-Trp-Ser-Tyr-D-Deh-Leu-Arg-Pro-GlyNH2 ({Ac-d2Nal-dPhe(4-Cl)-dW-Ser-Tyr-dDeh}-LRPG-NH2; reading uncertain; also: printed as N-Ac-D-Nal(2)-D-p-Cl-Phe-D-Trp-Ser-Tyr-D-Deh-Leu-Arg-Pro-GlyNH2) [Compound 18]” the “deaths recorded during an observation period of 21 days” value was “no deaths”. For “N-Ac-D-Nal(2)-D-p-F-Phe-D-Trp-Ser-Tyr-D-Deh-Leu-Arg-Pro-GlyNH2 [Compound 16]”, the “deaths recorded during an observation period of 21 days” value was “no deaths”. For “N-Ac-D-p-Cl-Phe-D-p-Cl-Phe-D-Trp-Ser-Tyr-D-Dph-Leu-Arg-Pro-D-AlaNH2 [Compound 8]”, the “deaths recorded during an observation period of 21 days” value was “no deaths”.

Source: patent EP0097031B1, “Nonapeptide and decapeptide analogs of LHRH useful as LHRH antagonists, their preparation and compositions containing them” (SYNTEX (U.S.A.) INC., priority 1982, dated 1988)
